Earlier results as cited in patent US20030215513A1, “Method for releasing nanosized particles of an active substance from a diffusion-controlled pharmaceutical composition for oral use” (priority 2002, published 2003).
Where two headings read alike, the source gives them in different places.

| Structure (SMILES) | saturated concentration (at 37° C.) | saturated concentration (at 25° C.) |
| --- | --- | --- |
| OC[C@@H](O)[C@@H](O)[C@H](O)[C@H](O)CO [mannitol] | about 17% | – |
| OC[C@@H](O)[C@@H](O)[C@H](O)[C@@H](O)CO [sorbitol] | – | about 66% |
